Data reported in PubChem BioAssay (NCI).
Several values for one entry are separate records, joined by “and”; a condition that tells them apart may be missing. Identical values can stand only once.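 Test compounds were applied to cells in 96-well plates for 48 hours at 5 doses. GI50 = concentration required for 50% inhibition of growth. Definition used: TGI = concentration required for complete inhibition of growth.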

Columns and labels:
Assay in all cases: NCI tumour cell line growth inhibition, 48 h
[1] = test system: BT-549 breast
[2] = test system: CAKI-1 renal
[3] = test system: HCT-15 colon
[4] = test system: LOX IMVI melanoma
[5] = test system: MDA-MB-435
[6] = test system: SK-MEL-2 melanoma
[7] = test system: SNB-75 CNS
[8] = test system: T-47D breast
[9] = test system: UACC-62 melanoma
[10] = test system: A498 renal

## COc1ccc(N[C@H](CS(=O)c2ccc(C)cc2)C(F)(F)F)cc1 (some centres undefined)
[1]
  TGI: > 100 µM
[2]
  TGI: > 100 µM
[3]
  TGI: > 100 µM
[4]
  TGI: > 100 µM
[5]
  TGI: > 100 µM
[6]
  TGI: > 100 µM
[7]
  TGI: > 100 µM
[8]
  TGI: > 100 µM
[9]
  TGI: > 100 µM

## O=C(O)CN1CCN2CCCCCCCCN(CC1)CCN(CC(=O)O)CC2
[10]
  TGI: > 100 µM
[1]
  TGI: > 100 µM
[2]
  TGI: > 100 µM
[3]
  TGI: > 100 µM
[4]
  TGI: > 100 µM
[5]
  TGI: > 100 µM
[6]
  TGI: > 100 µM
[7]
  TGI: > 100 µM
[8]
  TGI: > 100 µM
[9]
  TGI: > 100 µM

## Cc1cc(-c2nc3ccc(F)cc3s2)ccc1NC(=O)C(N)CCCCN (centres undefined)
[10]
  TGI: 24 µM
[1]
  TGI: 28.3 µM
[2]
  TGI: 24.9 µM
[3]
  TGI: 23.6 µM
[4]
  TGI: 4.73 µM
[5]
  TGI: 5.34 µM
[6]
  TGI: 23.1 µM
[7]
  TGI: 12.6 µM
[8]
  TGI: 16.1 µM
[9]
  TGI: 24.6 µM

## NC1=Nc2ccccc2Sc2nccn21
[10]
  TGI: 75.8 µM
[1]
  TGI: > 100 µM
[2]
  TGI: 64.9 µM
[3]
  TGI: 59.7 µM
[4]
  TGI: 32.3 µM
[5]
  TGI: 59 µM
[6]
  TGI: > 100 µM
[7]
  TGI: 54.3 µM
[8]
  TGI: 98.9 µM
[9]
  TGI: > 100 µM

## [N-]=[N+]=C1C(=O)C2CC3CC1CC2C3 (centres undefined)
[10]
  TGI: > 100 µM
[2]
  TGI: > 100 µM
[3]
  TGI: > 100 µM
[4]
  TGI: > 100 µM
[6]
  TGI: > 100 µM
[7]
  TGI: > 100 µM
[9]
  TGI: > 100 µM

## CC1(C)C(CBr)=[N+]([O-])C(C)(C)N1O
[10]
  TGI: > 10 µM
[1]
  TGI: 5.43 µM
[2]
  TGI: 5.87 µM
[3]
  TGI: > 8.12 µM
[4]
  TGI: > 10 µM
[5]
  TGI: > 8.08 µM
[6]
  TGI: > 10 µM
[7]
  TGI: > 10 µM
[8]
  TGI: 5.24 µM
[9]
  TGI: > 10 µM

## C/C=C(\C)C(=O)OC1C2C(C)=CC(=O)C(O)C2(C)C2C3(O)OCC24C1OC(=O)C(OC(C)=O)C4C(C)C3O (centres undefined)
[10]
  TGI: 0.147 µM
[2]
  TGI: 0.674 µM
[3]
  TGI: 0.328 µM
[4]
  TGI: 0.375 µM
[6]
  TGI: 0.073 µM
[7]
  TGI: 0.055 µM
[9]
  TGI: 0.0555 µM

## CCOC(=O)c1ccc(NCc2ccc3nc(OC)c(OC)nc3c2)cc1
[10]
  TGI: > 100 µM
[2]
  TGI: > 100 µM
[3]
  TGI: > 100 µM
[4]
  TGI: > 100 µM
[5]
  TGI: > 100 µM
[6]
  TGI: > 100 µM
[7]
  TGI: > 100 µM
[8]
  TGI: > 100 µM
[9]
  TGI: > 100 µM

## O=S(=O)(O)c1ccc(N=Nc2ccc(N=Nc3c(O)ccc4ccc(S(=O)(=O)O)cc34)cc2)cc1
[1]
  TGI: > 100 µM
[2]
  TGI: > 100 µM
[3]
  TGI: > 100 µM
[5]
  TGI: > 100 µM
[6]
  TGI: > 100 µM
[8]
  TGI: > 100 µM
[9]
  TGI: > 100 µM

## CCCC(=O)Nc1cc(/C=C/C(=O)N2CC(CCl)c3ccc([N+](=O)[O-])cc32)n(C)c1 (centres undefined)
[1]
  TGI: > 100 µM
[2]
  TGI: > 100 µM
[3]
  TGI: > 100 µM
[4]
  TGI: > 100 µM
[5]
  TGI: > 100 µM
[6]
  TGI: > 100 µM
[7]
  TGI: > 100 µM
[8]
  TGI: > 100 µM
[9]
  TGI: > 100 µM

## COC(=O)c1ccc(Oc2nc3ccc(C(F)(F)F)cc3nc2-c2ccccc2)cc1
[10]
  TGI: > 100 µM
[1]
  TGI: > 100 µM
[2]
  TGI: > 100 µM
[3]
  TGI: > 100 µM
[4]
  TGI: > 100 µM
[5]
  TGI: > 100 µM
[7]
  TGI: > 100 µM
[8]
  TGI: > 100 µM
[9]
  TGI: > 100 µM

## COc1cc(/C=C2\N=C(c3ccccc3)N(c3nc4ccccc4s3)C2=O)cc(OC)c1OC
[10]
  TGI: > 100 µM
[1]
  TGI: 59.4 µM
[2]
  TGI: > 100 µM
[3]
  TGI: > 100 µM
[4]
  TGI: > 100 µM
[5]
  TGI: 84.6 µM
[6]
  TGI: > 100 µM
[7]
  TGI: 61 µM
[8]
  TGI: > 100 µM

## Cc1cc(C)n(CN(CCCCO)Cn2nc(C)cc2C)n1
[10]
  TGI: > 100 µM
[1]
  TGI: 71.2 µM
[2]
  TGI: 99.5 µM
[3]
  TGI: 34.7 µM
[4]
  TGI: 51.2 µM
[5]
  TGI: 38.4 µM
[6]
  TGI: 41.7 µM
[8]
  TGI: 66.5 µM
[9]
  TGI: 36.9 µM

## CCOP(=O)(OCC)/C(=C\n1ccc(=O)[nH]c1=S)C(=O)OC
[10]
  TGI: > 100 µM
[2]
  TGI: > 100 µM
[3]
  TGI: > 100 µM
[4]
  TGI: > 100 µM
[5]
  TGI: > 100 µM
[6]
  TGI: > 100 µM
[7]
  TGI: > 100 µM
[8]
  TGI: > 100 µM
[9]
  TGI: > 100 µM

## CCSC1=N/C(=C\c2ccco2)C(Nc2ccc(C)cc2)=N1
[10]
  TGI: > 100 µM
[3]
  TGI: > 100 µM
[4]
  TGI: > 100 µM
[5]
  TGI: > 100 µM
[6]
  TGI: > 100 µM
[7]
  TGI: > 100 µM
[9]
  TGI: > 100 µM

## COc1ccc2c(c1)C(=O)c1c-2n(CCCN=[N+]=[N-])c(=O)c2cc([N+](=O)[O-])ccc12
[1]
  TGI: 1.3 µM
[2]
  GI50: 0.0018 µM
  TGI: 0.00531 µM
[4]
  GI50: 0.0707 µM and 0.177 µM
  TGI: 0.737 µM
[5]
  GI50: 0.252 µM and 0.491 µM
  TGI: > 100 µM
[6]
  GI50: 14.5 µM
  TGI: 39.1 µM
[7]
  GI50: 3.47 µM
  TGI: 20.5 µM
[8]
  GI50: 1.57 µM
  TGI: > 100 µM
[9]
  GI50: 0.225 µM
  TGI: 0.991 µM

## CSc1nc2nccnc2c(=O)[nH]1
[10]
  TGI: > 100 µM
[2]
  TGI: > 100 µM
[3]
  TGI: > 100 µM
[4]
  TGI: > 100 µM
[6]
  TGI: > 100 µM
[7]
  TGI: > 100 µM
[9]
  TGI: > 100 µM

## CC1=C(C(=O)O)N2C(=O)[C@@H](NC(=O)C(c3ccccc3)N3CSC(=S)N(C(C)C)C3)C2SC1 (some centres undefined)
[10]
  TGI: > 100 µM
[2]
  TGI: > 100 µM
[3]
  TGI: > 100 µM
[4]
  TGI: > 100 µM
[6]
  TGI: > 100 µM
[7]
  TGI: > 100 µM
[9]
  TGI: > 100 µM

## CC(=O)OC(OC(C)=O)c1c2ccccc2cc2ccccc12
[10]
  TGI: 40.7 µM
[1]
  TGI: 32.9 µM
[2]
  TGI: > 100 µM
[3]
  TGI: 56 µM
[4]
  TGI: 59.9 µM
[5]
  TGI: > 100 µM
[7]
  TGI: 43.9 µM
[8]
  TGI: 85.2 µM
[9]
  TGI: 41.7 µM

## N#CC1(C#N)C(=O)c2ccncc2C1=O
[10]
  TGI: > 100 µM
[1]
  TGI: > 100 µM
[2]
  TGI: > 100 µM
[3]
  TGI: > 100 µM
[5]
  TGI: > 100 µM
[6]
  TGI: > 100 µM
[7]
  TGI: > 100 µM
[8]
  TGI: > 100 µM
[9]
  TGI: > 100 µM

## CC(C)(Oc1ccc2c(=O)cc(-c3ccc(Cl)cc3)oc2c1)C(=O)Nc1c(Cl)cccc1Cl
[10]
  TGI: > 100 µM
[2]
  TGI: > 100 µM
[3]
  TGI: > 100 µM
[4]
  TGI: > 100 µM
[6]
  TGI: > 100 µM
[9]
  TGI: > 100 µM

## CC1=C(O)C(=O)C2C(=O)C1C(C)C2c1ccccc1 (centres undefined)
[10]
  TGI: > 100 µM
[2]
  TGI: > 100 µM
[3]
  TGI: > 100 µM
[4]
  TGI: > 100 µM
[6]
  TGI: > 100 µM
[7]
  TGI: > 100 µM
[9]
  TGI: > 100 µM

## O=C1C2CCCC2N1Cc1ccccc1 (centres undefined)
[10]
  TGI: > 100 µM
[2]
  TGI: > 100 µM
[3]
  TGI: > 100 µM
[4]
  TGI: > 100 µM
[5]
  TGI: > 100 µM
[7]
  TGI: > 100 µM
[8]
  TGI: > 100 µM
[9]
  TGI: > 100 µM
